# Molecular target: Nav 1.7 (Homo sapiens (Human), UniProt Q15858)
# Assay: in-vitro Nav 1.7 PX (IC50)
# Type: cell-based
# Settings: not given
# Sequence of Nav 1.7 (Q15858 whole entry): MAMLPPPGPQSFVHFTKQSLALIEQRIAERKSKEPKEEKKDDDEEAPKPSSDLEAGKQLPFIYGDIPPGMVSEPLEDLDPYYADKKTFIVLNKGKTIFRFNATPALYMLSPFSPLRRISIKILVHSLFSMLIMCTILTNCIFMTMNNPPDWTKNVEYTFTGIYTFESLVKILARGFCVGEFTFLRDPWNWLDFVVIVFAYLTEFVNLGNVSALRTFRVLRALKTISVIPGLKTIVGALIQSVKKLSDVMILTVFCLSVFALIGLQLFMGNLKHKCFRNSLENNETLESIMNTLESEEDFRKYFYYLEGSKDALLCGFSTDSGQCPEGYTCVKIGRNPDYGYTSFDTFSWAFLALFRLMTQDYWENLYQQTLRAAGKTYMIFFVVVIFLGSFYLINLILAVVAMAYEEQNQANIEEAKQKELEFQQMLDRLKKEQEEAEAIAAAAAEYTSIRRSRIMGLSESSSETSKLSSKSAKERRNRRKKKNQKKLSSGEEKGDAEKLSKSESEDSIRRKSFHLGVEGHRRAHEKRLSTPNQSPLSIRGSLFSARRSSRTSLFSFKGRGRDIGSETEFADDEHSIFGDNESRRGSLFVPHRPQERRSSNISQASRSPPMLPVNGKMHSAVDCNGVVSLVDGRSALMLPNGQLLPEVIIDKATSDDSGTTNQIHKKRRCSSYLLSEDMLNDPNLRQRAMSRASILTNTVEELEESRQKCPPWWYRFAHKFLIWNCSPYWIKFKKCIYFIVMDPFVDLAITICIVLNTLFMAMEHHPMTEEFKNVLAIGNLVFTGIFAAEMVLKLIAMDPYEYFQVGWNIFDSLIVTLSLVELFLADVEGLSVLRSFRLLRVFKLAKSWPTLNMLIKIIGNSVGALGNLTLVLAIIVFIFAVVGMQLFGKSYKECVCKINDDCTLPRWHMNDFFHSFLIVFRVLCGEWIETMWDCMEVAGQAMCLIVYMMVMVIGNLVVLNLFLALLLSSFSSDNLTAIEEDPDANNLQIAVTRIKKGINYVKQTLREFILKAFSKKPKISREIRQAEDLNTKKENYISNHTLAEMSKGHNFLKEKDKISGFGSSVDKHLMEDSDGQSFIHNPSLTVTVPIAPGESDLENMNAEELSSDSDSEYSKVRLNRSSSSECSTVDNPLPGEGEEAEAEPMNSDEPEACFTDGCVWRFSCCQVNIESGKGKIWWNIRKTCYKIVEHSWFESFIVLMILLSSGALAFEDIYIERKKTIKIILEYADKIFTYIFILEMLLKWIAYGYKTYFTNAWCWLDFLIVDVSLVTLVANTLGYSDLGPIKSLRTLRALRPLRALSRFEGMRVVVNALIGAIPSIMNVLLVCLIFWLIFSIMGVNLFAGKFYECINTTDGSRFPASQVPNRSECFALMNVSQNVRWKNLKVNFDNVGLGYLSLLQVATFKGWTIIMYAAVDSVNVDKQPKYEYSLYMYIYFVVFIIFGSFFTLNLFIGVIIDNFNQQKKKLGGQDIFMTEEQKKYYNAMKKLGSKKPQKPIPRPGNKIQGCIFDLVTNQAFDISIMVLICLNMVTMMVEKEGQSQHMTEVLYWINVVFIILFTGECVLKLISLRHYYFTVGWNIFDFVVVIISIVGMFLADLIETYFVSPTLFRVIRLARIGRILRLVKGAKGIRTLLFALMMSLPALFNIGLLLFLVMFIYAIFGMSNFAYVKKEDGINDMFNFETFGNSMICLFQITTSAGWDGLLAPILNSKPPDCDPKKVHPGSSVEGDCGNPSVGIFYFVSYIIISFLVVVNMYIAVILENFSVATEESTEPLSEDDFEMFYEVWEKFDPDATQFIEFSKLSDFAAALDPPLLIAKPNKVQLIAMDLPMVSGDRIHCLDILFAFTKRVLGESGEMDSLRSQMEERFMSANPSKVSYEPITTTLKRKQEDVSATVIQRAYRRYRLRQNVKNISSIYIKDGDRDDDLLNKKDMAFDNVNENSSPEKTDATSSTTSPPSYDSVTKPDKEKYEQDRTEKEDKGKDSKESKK
row,IC50 [nM],Molecule
1,63,"COc1cc(-c2cnc(OC)c(Cl)c2)c(F)cc1-n1c(=O)ccc2cc(S(=O)(=O)Nc3cccnn3)ccc21 (atropisomer, axis not shown; (P)) [Example 1157, (P)-1-(4-(5-chloro-6-methoxy-3-pyridinyl)-5-fluoro-2-methoxyphenyl)-2-oxo-N-3-pyridazinyl-1,2-dihydro-6-quinolinesulfonamide]"
2,> 10000,"COc1cc(-c2cccc(C)c2)ccc1-n1c(=O)ccc2cc(S(=O)(=O)Nc3ccon3)ccc21 (atropisomer, axis not shown; (M)) [Example 583, (M)-N-3-isoxazolyl-1-(3-methoxy-3′-methyl-4-biphenylyl)-2-oxo-1,2-dihydro-6-quinolinesulfonamide]"
3,63,"COc1cc(-c2cc(F)cnc2OC)c(C)cc1-n1c(=O)ccc2cc(S(=O)(=O)Nc3ccon3)ccc21 (atropisomer, axis not shown; (P)) [Example 426, (P)-1-(4-(5-fluoro-2-methoxy-3-pyridinyl)-2-methoxy-5-methylphenyl)-N-3-isoxazolyl-2-oxo-1,2-dihydro-6-quinolinesulfonamide]"

# Continued, molecule first:
row,Molecule,IC50 [nM]
1,"COc1cc(-c2cccc(OC(C)C)c2)ccc1-n1c(=O)ccc2cc(S(=O)(=O)Nc3nccc(C)n3)ccc21 (atropisomer, axis not shown; (P)) [Example 1206, (P)-1-(3-methoxy-3′-(1-methylethoxy)-4-biphenylyl)-N-(4-methyl-2-pyrimidinyl)-2-oxo-1,2-dihydro-6-quinolinesulfonamide]",590
2,"COc1cc(-c2ccc(F)c(Cl)c2)ccc1-n1c(=O)ccc2cc(S(=O)(=O)Nc3ccon3)ccc21 (atropisomer, axis not shown; (P)) [Example 578, (P)-1-(3′-chloro-4′-fluoro-3-methoxy-4-biphenylyl)-N-3-isoxazolyl-2-oxo-1,2-dihydro-6-quinolinesulfonamide]",16
3,"COc1nc(O[C@H]2CCCC[C@H]2C)c(Cl)cc1-n1c(=O)ccc2cc(S(=O)(=O)Nc3ccon3)ccc21 [Example 1224, 1-(5-chloro-2-methoxy-6-(((1S,2R)-2-methylcyclohexyl)oxy)-3-pyridinyl)-N-3-isoxazolyl-2-oxo-1,2-dihydro-6-quinolinesulfonamide]",88
4,"COc1cc(-c2cccc(F)c2)c(F)cc1-n1c(=O)cc(C)c2cc(S(=O)(=O)Nc3ccon3)ccc21 (atropisomer, axis not shown; (P)) [Example 572, (P)-1-(2,3′-difluoro-5-methoxy-4-biphenylyl)-N-3-isoxazolyl-4-methyl-2-oxo-1,2-dihydro-6-quinolinesulfonamide]",485
5,"COc1nc(N(C)C2CCCC2)c(Cl)cc1-n1c(=O)ccc2cc(S(=O)(=O)Nc3ccon3)ccc21 [Example 1231, 1-(5-chloro-6-(cyclopentyl(methyl)amino)-2-methoxy-3-pyridinyl)-N-3-isoxazolyl-2-oxo-1,2-dihydro-6-quinolinesulfonamide]",115
6,"COc1cc(C[C@H]2CCOC2)c(F)cc1-n1c(=O)ccc2cc(S(=O)(=O)Nc3ccon3)ccc21 (atropisomer, axis not shown; (P)) [Example 1234, (P)-1-(5-fluoro-2-methoxy-4-((3S)-tetrahydro-3-furanylmethyl)phenyl)-N-3-isoxazolyl-2-oxo-1,2-dihydro-6-quinolinesulfonamide]",1140

# Same assay, conditions: in-vitro Nav 1.7 PX data
row,IC50 [nM],Molecule
1,59,"COc1cc(-c2cccc(C)c2)ccc1-n1c(=O)ccc2cc(S(=O)(=O)Nc3ncccn3)ccc21 [Example 1117, 1-(3-methoxy-3′-methyl-4-biphenylyl)-2-oxo-N-2-pyrimidinyl-1,2-dihydro-6-quinolinesulfonamide]"
2,41,"COc1cc(-c2ccc(F)c(F)c2)c(F)cc1-n1c(=O)ccc2cc(S(=O)(=O)Nc3ncco3)ccc21 [Example 936, N-1,3-oxazol-2-yl-2-oxo-1-(2,3′,4′-trifluoro-5-methoxy-4-biphenylyl)-1,2-dihydro-6-quinolinesulfonamide]"
3,1600,"COc1cc(C[C@@H]2CCOC2)c(F)cc1-n1c(=O)ccc2cc(S(=O)(=O)Nc3ccon3)ccc21 [Example 1123, 1-(5-fluoro-2-methoxy-4-((3R)-tetrahydro-3-furanylmethyl)phenyl)-N-3-isoxazolyl-2-oxo-1,2-dihydro-6-quinolinesulfonamide, 1-(5-fluoro-2-methoxy-4-((3S)-tetrahydro-3-furanylmethyl)phenyl)-N-3-isoxazolyl-2-oxo-1,2-dihydro-6-quinolinesulfonamide]"
4,458,"CC(C#N)Oc1cc(-c2cc(F)cc(F)c2)c(F)cc1-n1c(=O)ccc2cc(S(=O)(=O)Nc3ccon3)ccc21 (stereo not drawn) [Example 681, 1-(5-(1-cyanoethoxy)-2,3′,5′-trifluoro-[1,1′-biphenyl]-4-yl)-N-(isoxazol-3-yl)-2-oxo-1,2-dihydroquinoline-6-sulfonamide]"
5,8,"COc1cc(-c2cccc(OC(F)(F)F)c2)c(F)cc1-n1c(=O)ccc2cc(S(=O)(=O)Nc3ccon3)ccc21 [Example 728, 1-(2-fluoro-5-methoxy-3′-(trifluoromethoxy)-4-biphenylyl)-N-3-isoxazolyl-2-oxo-1,2-dihydro-6-quinolinesulfonamide]"
6,573,"COc1cc(-c2ccncc2Cl)c(F)cc1-n1c(=O)ccc2cc(S(=O)(=O)Nc3ccon3)ccc21 [Example 748, 1-(4-(3-chloro-4-pyridinyl)-5-fluoro-2-methoxyphenyl)-N-3-isoxazolyl-2-oxo-1,2-dihydro-6-quinolinesulfonamide]"
7,246,"COc1cc(-c2cccc(OC)c2F)c(C)cc1-n1c(=O)ccc2cc(S(=O)(=O)Nc3ncccn3)ccc21 [Example 964, 1-(2′-fluoro-3′,5-dimethoxy-2-methyl-4-biphenylyl)-2-oxo-N-2-pyrimidinyl-1,2-dihydro-6-quinolinesulfonamide]"

# The next lines start with the molecule.
row,Molecule,IC50 [nM]
1,"COc1cc(-c2ccc(C)c(Cl)c2)c(F)cc1-n1c(=O)ccc2cc(S(=O)(=O)Nc3ccon3)c(F)cc21 [Example 979, 1-(3′-chloro-2-fluoro-5-methoxy-4′-methyl-4-biphenylyl)-7-fluoro-N-3-isoxazolyl-2-oxo-1,2-dihydro-6-quinolinesulfonamide]",21
2,"COc1cc(-c2cccc(OC)c2F)ccc1-n1c(=O)ccc2cc(S(=O)(=O)Nc3ccon3)ccc21 [Example 785, 1-(2′-fluoro-3,3′-dimethoxy-4-biphenylyl)-N-3-isoxazolyl-2-oxo-1,2-dihydro-6-quinolinesulfonamide]",66
3,"COc1ccnc(-c2cc(OC)c(-n3c(=O)ccc4cc(S(=O)(=O)Nc5ccon5)ccc43)cc2F)n1 [Example 808, 1-(5-fluoro-2-methoxy-4-(4-methoxy-2-pyrimidinyl)phenyl)-N-3-isoxazolyl-2-oxo-1,2-dihydro-6-quinolinesulfonamide]",3070
4,"COc1nc(-c2cc(F)cc(F)c2)c(Cl)cc1-n1c(=O)ccc2cc(S(=O)(=O)Nc3ccon3)ccc21 (atropisomer, axis not shown; (M)) [Example 666, (M)-1-(5-chloro-6-(3,5-difluorophenyl)-2-methoxy-3-pyridinyl)-N-3-isoxazolyl-2-oxo-1,2-dihydro-6-quinolinesulfonamide]",1060
5,"COc1cc(-c2cc(Cl)cnc2OC)ccc1-n1c(=O)ccc2cc(S(=O)(=O)Nc3ccon3)ccc21 [Example 813, 1-(4-(5-chloro-2-methoxy-3-pyridinyl)-2-methoxyphenyl)-N-3-isoxazolyl-2-oxo-1,2-dihydro-6-quinolinesulfonamide]",101
6,"CCc1cccc(-c2ccc(-n3c(=O)ccc4cc(S(=O)(=O)Nc5ccon5)ccc43)c(OC)c2)c1 [Example 810, 1-(3′-ethyl-3-methoxy-4-biphenylyl)-N-3-isoxazolyl-2-oxo-1,2-dihydro-6-quinolinesulfonamide]",15
7,"COc1cc(-c2cc(OC)c(-n3c(=O)ccc4cc(S(=O)(=O)Nc5ccon5)ccc43)cc2F)ccc1C#N [Example 720, 1-(4′-cyano-2-fluoro-3′,5-dimethoxy-4-biphenylyl)-N-3-isoxazolyl-2-oxo-1,2-dihydro-6-quinolinesulfonamide]",54
8,"1-(3′-(difluoromethoxy)-2-fluoro-5-methoxy-4-biphenylyl)-N-(5-fluoro-2-pyrimidinyl)-2-oxo-1,2-dihydro-6-quinolinesulfonamide [Example 907]",191
9,"COc1cc(-c2ccc(C)c(C)c2)ccc1-n1c(=O)ccc2cc(S(=O)(=O)Nc3ccon3)ccc21 [Example 812, N-3-isoxazolyl-1-(3-methoxy-3′,4′-dimethyl-4-biphenylyl)-2-oxo-1,2-dihydro-6-quinolinesulfonamide]",73
10,"COc1cc(-c2cc(C)ccc2Cl)ccc1-n1c(=O)ccc2cc(S(=O)(=O)Nc3ccon3)ccc21 [Example 1030, 1-(2′-chloro-3-methoxy-5′-methyl-4-biphenylyl)-N-3-isoxazolyl-2-oxo-1,2-dihydro-6-quinolinesulfonamide]",12
11,"COc1ccc(-c2ccc(-n3c(=O)ccc4cc(S(=O)(=O)Nc5ccon5)ccc43)c(OC)c2)cc1Cl [Example 1026, 1-(3′-chloro-3,4′-dimethoxy-4-biphenylyl)-N-3-isoxazolyl-2-oxo-1,2-dihydro-6-quinolinesulfonamide]",59

# Same assay, conditions: in-vitro Nav 1.7 PX data (PatchXpress)
row,IC50 [nM],Molecule
1,7780,"N#CCOc1cc(Br)c(F)cc1-n1c(=O)ccc2cc(S(=O)(=O)Nc3ccon3)ccc21 [Example 623, 1-(4-bromo-2-(cyanomethoxy)-5-fluorophenyl)-N-(isoxazol-3-yl)-2-oxo-1,2-dihydroquinoline-6-sulfonamide]"

# Same assay, conditions: in-vitro PatchXpress (PX)
row,IC50 [nM],Molecule
1,25,"COc1cc(-c2ccc(C)c(C#N)c2)c(F)cc1-n1c(=O)ccc2cc(S(=O)(=O)Nc3ccon3)ccc21 (atropisomer, axis not shown; (P)) [Example 524, (P)-1-(3′-cyano-2-fluoro-5-methoxy-4′-methyl-4-biphenylyl)-N-3-isoxazolyl-2-oxo-1,2-dihydro-6-quinolinesulfonamide]"
2,495,"COc1cc(N2CC(C(F)(F)F)C2)c(F)cc1-n1c(=O)ccc2cc(S(=O)(=O)Nc3ccon3)ccc21 [Example 530, 1-(5-fluoro-2-methoxy-4-(3-(trifluoromethyl)-1-azetidinyl)phenyl)-N-3-isoxazolyl-2-oxo-1,2-dihydro-6-quinolinesulfonamide]"

# Source: patent US9212182B2, “Bicyclic sulfonamide compounds as sodium channel inhibitors” (AMGEN INC., priority 2013, dated 2015)
